41 compounds from PMC9250534, “Synthesis and direct assay of large macrocycle diversities by combinatorial late-stage modification at picomole scale” (Nature Communications, 2022) can be followed below.

The experiment addresses T1, thrombin (Homo sapiens, UniProt P00734).
T1 construct: consists of two polypeptide chains of 36 (light chain) and 259 amino acid
In words: Thrombin inhibition screen of crude macrocycle reactions (residual thrombin activity, fluorogenic substrate Z-Gly-Gly-Arg-AMC). In kind it is biochemical. To be noted: 10 µM macrocycle concentration; for percent residual thrombin activity: crude reactions, Library 1a-l, scaffold AA1-AA2-AA3 combined with 1-16 or '-'; for % thrombin activity, Original screen / % thrombin activity, Repeat screen: macrocycles containing acid 14, crude reaction; for % thrombin activity, Repeat screen: replicate reaction and screen. Put shortly: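 Residual activity was measured as the AMC release rate after adding 50 μM Z-Gly-Gly-Arg-AMC. This followed a 10-min room-temperature preincubation of 2 nM thrombin with 10 μM single macrocycles in pH 7.4 Tris buffer (0.6% DMSO). Percent inhibition was taken against the mean slope of DMSO controls.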

Numbered stars: 1 amine (or outer) side, 2 acyl side, 3 side chain; on linkers, the order of the positions; unused ones are H or OH. Bridge positions count the residues as written; N and C are the ends. Square brackets hold non-standard residues; d marks the D form. Peptide text beside a SMILES is read from it. * marks the point of attachment. 1,2,3Thiadiazole5CO(4-Me) = Cc1nnsc1C(=O)*; Isoorotoyl = O=C(c1c[nH]c(=O)[nH]c1=O)*; 2Thenoyl(5-Cl) = O=C(c1ccc(Cl)s1)*; Phenoxyacetyl = O=C(COc1ccccc1)*; Cysteamide = C(CS[*:3])N[*:1]; X3 = O=C(Cc1c[nH]c2ccccc12)*; Isovaleryl = CC(C)CC(=O)*; Orn = NCCC[C@H](N)C(=O)O; 2Furoyl = O=C(c1ccco1)*; Api = NC1(C(=O)O)CCNCC1; βAla = NCCC(=O)O; Mpa = O=C(O)CCS

With `CC(C)CC(=O)NCCC[C@@H]1NC(=O)CCSSCCNC(=O)[C@H](CCC(N)=O)NC(=O)c2ccc(cc2)CNC1=O` [D2-B3-Q/8], the “percent residual thrombin activity” value is 112.114%. Consider `O=C1CCSSCCNC(=O)C(CO)NC(=O)c2ccc(cc2)CNC(=O)C(CCCCNC(=O)c2ccc(Cl)s2)N1` (centres unmarked) [X D1 B3 S], for which the “% thrombin activity, Original screen” value came out at 99.2% and the “% thrombin activity, Repeat screen” value stood at 103.2%. Regarding `NC(=O)CC[C@@H]1NC(=O)[C@H](CCCCNC(=O)Cc2c[nH]c3ccccc23)NC(=O)[C@@H]2CCCN2C(=O)CCSSCCNC1=O` [B1-D1-Q/12] ([Mpa]PK(X3)Q-Cysteamide; disulfide 1-C), the “percent residual thrombin activity” value turned out to be 106.242%. Regarding `O=C1NCCSSCCC(=O)N2CCC[C@H]2C(=O)NC2(CCN(C(=O)c3ccc(Cl)s3)CC2)C(=O)N[C@H]1Cc1c[nH]cn1` [X B1 D6 H] ([Mpa]P[Api](2Thenoyl(5-Cl))H-Cysteamide; disulfide 1-C), the “% thrombin activity, Original screen” value amounted to 90.0% and the “% thrombin activity, Repeat screen” value came to 94.0%. As for `CC(C)[C@@H]1NC(=O)[C@H](CCCNC(=O)c2ccccc2)NC(=O)C2(CC2)CNC(=O)CCSSCCNC1=O` [B6-D2-V/1], the “percent residual thrombin activity” value is 108.209%.

In the case of `COc1ccc(C(=O)NCCCC[C@@H]2NC(=O)[C@H](Cc3ccc(O)cc3)NC(=O)C3(CC3)CNC(=O)CCSSCCNC2=O)cn1` [B6-Y-D1/10], the “percent residual thrombin activity” value worked out at 104.034%.

For the compound `O=C1CCNC(=O)[C@@H](Cc2ccc(O)cc2)NC(=O)C2(CCN(C(=O)c3ccc(Cl)s3)CC2)NC(=O)CCSSCCN1` [X D6 y B2], the “% thrombin activity, Original screen” value stood at 102.0% and the “% thrombin activity, Repeat screen” value is recorded as 104.5%. Consider `O=C(NCCC[C@@H]1NC(=O)[C@H](CO)NC(=O)[C@@H]2CCCN2C(=O)CCSSCCNC1=O)c1ccc(Cl)s1` [B1-S-D2/14] ([Mpa]PS[Orn](2Thenoyl(5-Cl))-Cysteamide; disulfide 1-C), for which the “percent residual thrombin activity” value turned out to be 96.3876%. Turning to `C[C@H]1NC(=O)CCSSCCNC(=O)[C@@H]2CCCN2C(=O)[C@H](CCCCNC(=O)Cc2c[nH]c3ccccc23)NC1=O` [a-D1-B1/12] ([Mpa][dA]K(X3)P-Cysteamide; disulfide 1-C), the “percent residual thrombin activity” value was 113.455%. For the compound `CC(C)[C@@H]1NC(=O)CCSSCCNC(=O)[C@@H]2CCCN2C(=O)[C@H](CCCCNC(=O)c2ccc(Cl)s2)NC1=O` [V-D1-B1/14] ([Mpa]VK(2Thenoyl(5-Cl))P-Cysteamide; disulfide 1-C), the “percent residual thrombin activity” value is given as 105.594%.

In the case of `CC(C)[C@@H]1NC(=O)c2ccc(cc2)CNC(=O)CCSSCCNC(=O)[C@H](CCCCNC(=O)c2c[nH]c(=O)cn2)NC1=O` [B3-V-D1/9], the “percent residual thrombin activity” value worked out at 107.378%. The same measure, in the same setting: with `O=C1CCSSCCNC(=O)[C@@H](Cc2ccccc2)NC(=O)[C@H]2CCCN(C2)C(=O)[C@H](CCCNC(=O)c2ccc(Cl)s2)N1` [D2-B4-f/14] the figure was 82.899%.

For `NC(=O)CC[C@@H]1NC(=O)[C@@H]2CCCN2C(=O)CCSSCCNC(=O)[C@H](CCCNC(=O)c2c[nH]c(=O)[nH]c2=O)NC1=O` [B1-Q-D2/11] ([Mpa]PQ[Orn](Isoorotoyl)-Cysteamide; disulfide 1-C), the “percent residual thrombin activity” value was determined as 110.064%. Take `O=C1CCSSCCNC(=O)C2(CC2)CNC(=O)C2(CCN(C(=O)c3ccc(Cl)s3)CC2)NC(=O)[C@@H](Cc2c[nH]c3ccccc23)N1` [X w D6 B6]: the “% thrombin activity, Original screen” value came to 89.3% and the “% thrombin activity, Repeat screen” value was found to be 97.3%.

Take `O=C(NCCC[C@@H]1NC(=O)[C@H](CO)NC(=O)[C@@H]2CCCN2C(=O)CCSSCCNC1=O)c1c[nH]c(=O)[nH]c1=O` [B1-S-D2/11] ([Mpa]PS[Orn](Isoorotoyl)-Cysteamide; disulfide 1-C): the “percent residual thrombin activity” value came out at 112.339%. The same measure, in the same setting: with `C[C@H]1NC(=O)CCSSCCNC(=O)[C@@H]2CCCN2C(=O)[C@H](CCCCNC(=O)c2ccc(Cl)s2)NC1=O` [a-D1-B1/14] ([Mpa][dA]K(2Thenoyl(5-Cl))P-Cysteamide; disulfide 1-C) the figure was 109.871%; with `CC(C)C[C@@H]1NC(=O)CCNC(=O)CCSSCCNC(=O)[C@H](CCCNC(=O)c2c[nH]c(=O)[nH]c2=O)NC1=O` [B2-L-D2/11], 112.783%.

Turning to `COc1ccc(C(=O)NCCCC[C@@H]2NC(=O)[C@H](Cc3cnc[nH]3)NC(=O)c3ccc(cc3)CNC(=O)CCSSCCNC2=O)cn1` [B3-H-D1/10], the “percent residual thrombin activity” value amounted to 107.476%. On the same count and under the same terms, the result for `CC(C)[C@@H]1NC(=O)[C@H](CCCCNC(=O)c2ccco2)NC(=O)CCSSCCNC(=O)C2(CC2)CNC1=O` [D1-V-B6/16] reads 107.867%. For `O=C1CCNC(=O)[C@H](CO)NC(=O)[C@H](CCCNC(=O)c2ccc(Cl)s2)NC(=O)CCSSCCN1` [X D2 S B2], the “% thrombin activity, Original screen” value is recorded as 105.4% and the “% thrombin activity, Repeat screen” value turned out to be 107.4%. Taken in the same sequence, the figures for `O=C1CNC(=O)[C@@H](NC(=O)c2ccc(Cl)s2)CSSCCNC(=O)c2ccc(cc2)CNC(=O)[C@@H](CO)N1` [C G s B3] were 93.7% and 99.7%. In the case of `NC(=O)CC[C@@H]1NC(=O)CCSSCCNC(=O)[C@H](CCCCNC(=O)c2ccc(Cl)s2)NC(=O)C2(CC2)CNC1=O` [Q-B6-D1/14], the “percent residual thrombin activity” value is given as 99.4946%.

Turning to `CC(C)C[C@@H]1NC(=O)CCSSCCNC(=O)[C@@H]2CCCN2C(=O)[C@H](CCCCNC(=O)COc2ccccc2)NC1=O` [L-D1-B1/13] ([Mpa]LK(Phenoxyacetyl)P-Cysteamide; disulfide 1-C), the “percent residual thrombin activity” value is 112.403%. Still for that read-out and setting: the result for `CC(C)[C@@H]1NC(=O)CCSSCCNC(=O)[C@@H]2CCCN2C(=O)[C@H](CCCCNC(=O)c2ccco2)NC1=O` [V-D1-B1/16] ([Mpa]VK(2Furoyl)P-Cysteamide; disulfide 1-C) reads 110.34%; that for `CC[C@H](C)[C@@H]1NC(=O)[C@H](CCCNC(=O)COc2ccccc2)NC(=O)c2cccc(c2)CNC(=O)CCSSCCNC1=O` [B5-D2-I/13], 106.564%. Same read-out and setting: the result for `O=C1CCSSCCNC(=O)[C@H](Cc2c[nH]c3ccccc23)NC(=O)[C@H](CCCNC(=O)c2cnccn2)NC(=O)C2(CC2)CN1` [B6-D2-W/2] reads 95.9188%; that for `CC[C@H](C)[C@@H]1NC(=O)[C@H](CCCNC(=O)c2snnc2C)NC(=O)CCSSCCNC(=O)[C@@H]2CCCN2C1=O` [D2-I-B1/15] ([Mpa][Orn](1,2,3Thiadiazole5CO(4-Me))IP-Cysteamide; disulfide 1-C), 108.604%. Same read-out and setting: the result for `O=C(Cc1c[nH]c2ccccc12)NCCC[C@@H]1NC(=O)CCSSCCNC(=O)c2ccc(cc2)CNC(=O)[C@H](Cc2c[nH]c3ccccc23)NC1=O` [D2-W-B3/12] reads 112.189%. Regarding `CC(C)[C@@H]1NC(=O)c2ccc(cc2)CNC(=O)CCSSCCNC(=O)[C@H](CCCCNC(=O)c2ccc(Cl)s2)NC1=O` [X B3 V D1], the “% thrombin activity, Original screen” value turned out to be 102.1% and the “% thrombin activity, Repeat screen” value is given as 107.7%. Consider `O=C1CCSSCCNC(=O)[C@H](Cc2ccc(O)cc2)NC(=O)[C@H](CCCNC(=O)COc2ccccc2)NC(=O)CCN1` [B2-D2-Y/13], for which the “percent residual thrombin activity” value is 109.064%. As to `CC[C@H](C)[C@@H]1NC(=O)CCSSCCNC(=O)[C@H](CNC(=O)c2ccc(Cl)s2)NC(=O)CCNC1=O` [X I B2 D3], the “% thrombin activity, Original screen” value was determined as 72.9% and the “% thrombin activity, Repeat screen” value is listed as 70.2%. For `CC[C@H](C)[C@@H]1NC(=O)[C@H](CCCCNC(=O)c2ccco2)NC(=O)CCSSCCNC(=O)C2(CC2)CNC1=O` [D1-I-B6/16], the “percent residual thrombin activity” value is given as 103.501%.

On to `CC[C@H](C)[C@@H]1NC(=O)[C@H](CCCNC(=O)CC(C)C)NC(=O)CCSSCCNC(=O)CCNC1=O` [D2-I-B2/8] ([Mpa][Orn](Isovaleryl)I[βAla]-Cysteamide; disulfide 1-C), for which the “percent residual thrombin activity” value came to 110.049%.

With `CC1NC(=O)c2ccc(cc2)CNC(=O)C2(CCN(C(=O)c3ccc(Cl)s3)CC2)NC(=O)CCSSCCNC1=O` (centres unmarked) [X D6 B3 a], the “% thrombin activity, Original screen” value is 92.0% and the “% thrombin activity, Repeat screen” value is 95.8%. For the compound `CC[C@H](C)[C@@H]1NC(=O)[C@H](CCCNC(=O)COc2ccccc2)NC(=O)CCSSCCNC(=O)CCNC1=O` [D2-I-B2/13], the “percent residual thrombin activity” value is recorded as 114.645%.

Take `O=C(Cc1c[nH]c2ccccc12)NCCCC[C@@H]1NC(=O)[C@@H](CO)NC(=O)[C@@H]2CCCN2C(=O)CCSSCCNC1=O` [B1-s-D1/12] ([Mpa]P[dS]K(X3)-Cysteamide; disulfide 1-C): the “percent residual thrombin activity” value was found to be 111.278%. The same measure, in the same setting: with `Cc1nnsc1C(=O)NCCCC[C@@H]1NC(=O)[C@H](Cc2ccc(O)cc2)NC(=O)C2(CC2)CNC(=O)CCSSCCNC1=O` [B6-Y-D1/15] the figure was 105.617%; with `C[C@H]1NC(=O)CCSSCCNC(=O)c2cccc(c2)CNC(=O)[C@H](CCCCNC(=O)c2cnccn2)NC1=O` [a-D1-B5/2], 104.737%; with `O=C(NCCC[C@@H]1NC(=O)[C@H](CO)NC(=O)[C@@H]2CCCN2C(=O)CCSSCCNC1=O)c1ccc(Cl)s1` [B1-s-D2/14] ([Mpa]PS[Orn](2Thenoyl(5-Cl))-Cysteamide; disulfide 1-C), 95.3682%. Same read-out and setting: with `O=C1CCNC(=O)[C@@H](CO)NC(=O)CCSSCCNC(=O)[C@H](CCCCNC(=O)c2c[nH]c(=O)cn2)N1` [s-B2-D1/9] the figure was 109.681%. Regarding `O=C1CCSSCCNC(=O)[C@H](CCCCNC(=O)Cc2c[nH]c3ccccc23)NC(=O)[C@H](Cc2ccc(O)cc2)NC(=O)C2(CC2)CN1` [B6-Y-D1/12], the “percent residual thrombin activity” value came to 101.278%.
